From patent publication US20150005281A1, “PYRIMIDINE-2,4-DIAMINE DERIVATIVES AS KINASE INHIBITORS” (Cellzome Limited, priority 2011, published 2015) come the findings set out here.

Holding throughout (assay type): binding
One test addresses T1, TYK2 (Homo sapiens, UniProt P29597).
T1 construct: endogenous in cells; host or cells: Molt4 (ATCC CRL-1582) and Ramos (ATCC CRL-1596) cells; mixed lysate 1:2
Description: Kinobeads assay with immunodetection, TYK2. The conditions noted are these: for IC50: Kinobeads assay, mixed Molt4/Ramos lysate, read-out: Inhibition values (IC50) Tyk2. In short, it runs like this:
(§1)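 Inhibition of kinase capture on aminopyrido-pyrimidine beads was measured after a 3 h cold incubation in mixed human leukemia and lymphoma cell lysate. Bound kinase was quantified by immunodetection and IC50s were calculated.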

A further test addresses T2, JAK2 (Homo sapiens, UniProt O60674).
T2 construct: endogenous in cells; host or cells: Molt4 (ATCC CRL-1582) and Ramos (ATCC CRL-1596) cells; mixed lysate 1:2
Description: Kinobeads assay with immunodetection, JAK2. To be noted: mixed Molt4/Ramos lysate, read-out: Inhibition values (IC50) JAK2. The essentials:
as §1

The target of a further test is T3, JAK3 (Homo sapiens, UniProt P52333).
T3 construct: endogenous in cells; host or cells: Molt4 (ATCC CRL-1582) and Ramos (ATCC CRL-1596) cells; mixed lysate 1:2
T3 sequence (P52333 1-1124): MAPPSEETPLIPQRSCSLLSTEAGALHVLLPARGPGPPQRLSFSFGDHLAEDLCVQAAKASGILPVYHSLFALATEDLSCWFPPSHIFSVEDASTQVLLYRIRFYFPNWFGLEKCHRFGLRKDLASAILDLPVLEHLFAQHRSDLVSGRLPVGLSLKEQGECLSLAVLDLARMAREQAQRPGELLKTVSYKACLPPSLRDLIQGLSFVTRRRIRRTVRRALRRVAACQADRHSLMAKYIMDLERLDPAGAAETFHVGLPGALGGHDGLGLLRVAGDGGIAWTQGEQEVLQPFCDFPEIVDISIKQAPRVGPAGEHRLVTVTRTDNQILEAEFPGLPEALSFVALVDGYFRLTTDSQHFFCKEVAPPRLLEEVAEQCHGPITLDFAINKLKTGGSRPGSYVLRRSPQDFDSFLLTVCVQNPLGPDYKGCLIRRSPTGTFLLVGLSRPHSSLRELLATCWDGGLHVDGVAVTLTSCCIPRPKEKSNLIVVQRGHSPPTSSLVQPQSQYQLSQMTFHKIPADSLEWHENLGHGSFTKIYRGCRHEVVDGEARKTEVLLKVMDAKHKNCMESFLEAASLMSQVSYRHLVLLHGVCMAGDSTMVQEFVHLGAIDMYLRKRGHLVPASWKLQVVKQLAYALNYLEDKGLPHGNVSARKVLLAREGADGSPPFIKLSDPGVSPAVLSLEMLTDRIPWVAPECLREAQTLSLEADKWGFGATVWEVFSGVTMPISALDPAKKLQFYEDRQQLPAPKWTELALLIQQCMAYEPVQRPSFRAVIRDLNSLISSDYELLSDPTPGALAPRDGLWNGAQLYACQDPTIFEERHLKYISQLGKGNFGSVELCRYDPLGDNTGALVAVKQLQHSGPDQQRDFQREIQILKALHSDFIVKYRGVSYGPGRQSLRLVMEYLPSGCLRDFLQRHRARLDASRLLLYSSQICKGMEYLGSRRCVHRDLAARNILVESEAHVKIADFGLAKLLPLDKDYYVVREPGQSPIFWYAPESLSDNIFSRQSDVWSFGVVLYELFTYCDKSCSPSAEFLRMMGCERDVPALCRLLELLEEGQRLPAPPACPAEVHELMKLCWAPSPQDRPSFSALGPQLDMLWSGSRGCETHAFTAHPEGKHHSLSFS
Description: Kinobeads assay with immunodetection, JAK3. To be noted: for IC50: Kinobeads assay, mixed Molt4/Ramos lysate, read-out: Inhibition values (IC50) JAK3. The essentials: as §1

A further test addresses T4, JAK1 (Homo sapiens, UniProt P23458).
T4 construct: endogenous in cells; host or cells: Molt4 (ATCC CRL-1582) and Ramos (ATCC CRL-1596) cells; mixed lysate 1:2
Description: Kinobeads assay with immunodetection, JAK1. The conditions noted are these: for IC50: Kinobeads assay, mixed Molt4/Ramos lysate, read-out: Inhibition values (IC50) JAK1. In short, it runs like this:
as §1

T4 sequence (P23458 whole entry): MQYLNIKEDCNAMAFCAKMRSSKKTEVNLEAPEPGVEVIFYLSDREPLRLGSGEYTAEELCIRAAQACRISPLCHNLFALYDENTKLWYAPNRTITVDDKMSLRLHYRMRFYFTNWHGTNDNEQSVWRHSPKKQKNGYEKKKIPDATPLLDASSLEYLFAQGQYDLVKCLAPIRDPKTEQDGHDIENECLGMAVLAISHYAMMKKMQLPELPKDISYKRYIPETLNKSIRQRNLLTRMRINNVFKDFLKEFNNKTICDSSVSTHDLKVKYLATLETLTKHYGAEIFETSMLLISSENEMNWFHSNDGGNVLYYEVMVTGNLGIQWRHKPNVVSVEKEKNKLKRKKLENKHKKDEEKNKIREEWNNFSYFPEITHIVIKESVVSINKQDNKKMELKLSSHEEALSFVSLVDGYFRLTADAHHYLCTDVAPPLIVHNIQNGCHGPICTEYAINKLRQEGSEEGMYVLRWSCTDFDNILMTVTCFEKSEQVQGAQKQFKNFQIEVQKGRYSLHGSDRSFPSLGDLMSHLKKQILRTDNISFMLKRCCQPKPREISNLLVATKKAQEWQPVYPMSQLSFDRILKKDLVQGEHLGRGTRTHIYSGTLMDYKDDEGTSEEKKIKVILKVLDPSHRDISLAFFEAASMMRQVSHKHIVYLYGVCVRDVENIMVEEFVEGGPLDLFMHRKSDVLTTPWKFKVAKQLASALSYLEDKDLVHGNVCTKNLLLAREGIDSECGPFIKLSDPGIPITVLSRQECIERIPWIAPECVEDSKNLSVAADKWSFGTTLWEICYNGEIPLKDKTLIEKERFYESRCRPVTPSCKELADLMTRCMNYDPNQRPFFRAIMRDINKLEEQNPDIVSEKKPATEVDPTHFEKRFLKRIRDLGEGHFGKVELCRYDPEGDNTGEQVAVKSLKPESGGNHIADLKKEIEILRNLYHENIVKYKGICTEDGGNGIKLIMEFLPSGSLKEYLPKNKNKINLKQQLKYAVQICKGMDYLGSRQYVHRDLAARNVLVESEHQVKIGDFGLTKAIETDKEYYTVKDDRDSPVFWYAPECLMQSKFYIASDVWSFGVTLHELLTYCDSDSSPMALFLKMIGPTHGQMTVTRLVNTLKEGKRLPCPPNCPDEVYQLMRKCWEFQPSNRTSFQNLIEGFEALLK
T1 sequence (P29597 whole entry): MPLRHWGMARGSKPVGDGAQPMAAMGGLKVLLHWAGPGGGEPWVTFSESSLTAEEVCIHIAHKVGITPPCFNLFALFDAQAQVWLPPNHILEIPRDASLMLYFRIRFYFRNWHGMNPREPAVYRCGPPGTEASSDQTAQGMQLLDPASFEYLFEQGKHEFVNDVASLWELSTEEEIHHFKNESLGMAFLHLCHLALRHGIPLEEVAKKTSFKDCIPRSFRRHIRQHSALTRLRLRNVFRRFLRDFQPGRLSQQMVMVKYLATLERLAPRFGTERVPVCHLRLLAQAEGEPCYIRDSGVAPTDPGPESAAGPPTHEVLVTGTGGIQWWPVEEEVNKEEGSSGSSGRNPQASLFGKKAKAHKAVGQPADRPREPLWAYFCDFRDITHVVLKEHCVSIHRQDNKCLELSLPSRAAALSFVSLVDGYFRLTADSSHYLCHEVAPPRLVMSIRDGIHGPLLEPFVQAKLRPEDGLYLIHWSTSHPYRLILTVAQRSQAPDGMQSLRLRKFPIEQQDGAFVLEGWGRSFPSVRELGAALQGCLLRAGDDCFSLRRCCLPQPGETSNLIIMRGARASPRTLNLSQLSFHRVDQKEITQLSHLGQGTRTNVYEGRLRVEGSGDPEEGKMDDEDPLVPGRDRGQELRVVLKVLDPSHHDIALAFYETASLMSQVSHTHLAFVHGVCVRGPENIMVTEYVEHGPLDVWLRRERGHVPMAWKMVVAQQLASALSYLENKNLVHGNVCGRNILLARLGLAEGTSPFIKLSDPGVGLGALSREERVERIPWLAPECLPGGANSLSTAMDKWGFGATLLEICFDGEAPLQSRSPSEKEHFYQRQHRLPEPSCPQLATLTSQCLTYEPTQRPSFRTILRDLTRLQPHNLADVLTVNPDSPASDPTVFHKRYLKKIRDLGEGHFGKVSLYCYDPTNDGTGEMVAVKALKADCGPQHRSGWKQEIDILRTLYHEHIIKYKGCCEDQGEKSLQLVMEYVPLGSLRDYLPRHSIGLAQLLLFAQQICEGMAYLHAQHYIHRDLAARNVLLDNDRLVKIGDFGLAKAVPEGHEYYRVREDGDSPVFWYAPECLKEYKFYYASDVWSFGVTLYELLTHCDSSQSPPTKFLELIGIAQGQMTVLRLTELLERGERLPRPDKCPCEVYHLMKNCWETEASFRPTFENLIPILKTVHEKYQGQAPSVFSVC
T2 sequence (O60674 whole entry): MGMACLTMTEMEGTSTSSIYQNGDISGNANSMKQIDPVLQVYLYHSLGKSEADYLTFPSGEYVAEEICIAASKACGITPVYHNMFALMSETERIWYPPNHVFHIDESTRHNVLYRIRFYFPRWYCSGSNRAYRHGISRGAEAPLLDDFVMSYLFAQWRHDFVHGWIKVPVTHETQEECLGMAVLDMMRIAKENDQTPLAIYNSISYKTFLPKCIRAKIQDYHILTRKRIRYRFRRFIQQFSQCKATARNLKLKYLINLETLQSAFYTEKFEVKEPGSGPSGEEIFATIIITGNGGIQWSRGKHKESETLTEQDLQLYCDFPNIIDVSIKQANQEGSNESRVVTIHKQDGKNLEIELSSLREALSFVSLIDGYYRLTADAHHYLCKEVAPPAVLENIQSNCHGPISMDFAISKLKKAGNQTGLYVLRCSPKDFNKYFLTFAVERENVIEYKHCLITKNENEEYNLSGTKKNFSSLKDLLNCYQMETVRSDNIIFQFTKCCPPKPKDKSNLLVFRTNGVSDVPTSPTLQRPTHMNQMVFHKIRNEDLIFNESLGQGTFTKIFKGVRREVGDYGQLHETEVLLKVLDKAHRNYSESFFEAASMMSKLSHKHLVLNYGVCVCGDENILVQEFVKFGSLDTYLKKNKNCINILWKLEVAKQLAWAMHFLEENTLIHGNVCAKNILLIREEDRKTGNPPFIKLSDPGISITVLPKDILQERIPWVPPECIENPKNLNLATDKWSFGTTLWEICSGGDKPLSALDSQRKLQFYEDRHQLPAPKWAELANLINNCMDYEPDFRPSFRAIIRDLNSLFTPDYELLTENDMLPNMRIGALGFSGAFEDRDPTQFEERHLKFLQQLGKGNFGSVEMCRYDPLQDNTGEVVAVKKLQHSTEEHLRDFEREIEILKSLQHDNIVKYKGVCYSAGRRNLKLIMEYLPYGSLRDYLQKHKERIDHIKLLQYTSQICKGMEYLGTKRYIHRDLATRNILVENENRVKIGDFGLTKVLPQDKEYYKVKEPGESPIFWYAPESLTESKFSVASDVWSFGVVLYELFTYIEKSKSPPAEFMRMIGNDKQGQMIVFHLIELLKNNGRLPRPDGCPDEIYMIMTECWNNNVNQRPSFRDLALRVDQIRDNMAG

Broadly, the IC50 is the concentration that inhibits the measured activity by half. Consider `Cn1cc(Nc2ncc(Cl)c(NC[C@H]3CCCN3CC(=O)NCC#N)n2)cn1` [Example 99, (R)-2-(2-(((5-chloro-2-((1-methyl-1H-pyrazol-4-yl)amino)pyrimidin-4-yl)amino)methyl)pyrrolidin-1-yl)-N-(cyanomethyl)acetamide], for which the IC50 on TYK2 is 100 to 1000 nM; at JAK2, 1000 to 10000 nM; at JAK3 it was below 100 nM; at JAK1, below 100 nM. Moreover, at JAK3 (JAK3 over JAK2), the “Selectivity ratio over JAK2, JAK3” value is given as “JAK3 = 155”.
As to `Cc1cnc(Nc2cnn(C)c2)nc1NC[C@@H]1C[C@H](F)CN1CCS(C)(=O)=O` [Example 100, N^4-(((2S,4S)-4-fluoro-1-(2-(methylsulfonyl)ethyl)pyrrolidin-2-yl)methyl)-5-methyl-N^2-(1-methyl-1H-pyrazol-4-yl)pyrimidine-2,4-diamine], the IC50 at TYK2 is below 100 nM; on JAK2, 100 to 1000 nM; at JAK3 it was 100 to 1000 nM; at JAK1, below 100 nM. Also, the “Selectivity ratio over JAK2, JAK1” value on JAK1 is reported as “JAK1 = 26”.
As for `Cc1cnc(Nc2cnn(C)c2)nc1NC[C@@H]1C[C@H](F)CN1CCC#N` [Example 101, 3-((2S,4S)-4-fluoro-2-(((5-methyl-2-((1-methyl-1H-pyrazol-4-yl)amino)pyrimidin-4-yl)amino)methyl)pyrrolidin-1-yl)propanenitrile], the IC50 at TYK2 was below 100 nM; on JAK2 it was 100 to 1000 nM; on JAK3, 100 to 1000 nM; at JAK1 it was below 100 nM. Further, at JAK1, the “Selectivity ratio over JAK2, JAK1” value is recorded as “JAK1 = 17”.
As to `Cc1cnc(Nc2cnn(C)c2)nc1NC[C@@H]1C[C@H](F)CN1CC#N` [Example 102, 2-((2S,4S)-4-fluoro-2-(((5-methyl-2-((1-methyl-1H-pyrazol-4-yl)amino)pyrimidin-4-yl)amino)methyl)pyrrolidin-1-yl)acetonitrile], the concentration for half-maximal inhibition (IC50) is 100 to 1000 nM at TYK2, 1000 to 10000 nM on JAK2, 100 to 1000 nM on JAK3 and below 100 nM on JAK1. The “Selectivity ratio over JAK2, JAK1” value at JAK1 is on record as “JAK1 = 16”.
As to `Cc1cnc(Nc2cnn(C)c2)nc1NC[C@@H]1C[C@H](F)CN1C(=O)CC#N` [Example 103, 3-((2S,4S)-4-fluoro-2-(((5-methyl-2-((1-methyl-1H-pyrazol-4-yl)amino)pyrimidin-4-yl)amino)methyl)pyrrolidin-1-yl)-3-oxopropanenitrile], the IC50 on TYK2 was 100 to 1000 nM; on JAK2 it was above 10000 nM; at JAK3 it was 100 to 1000 nM; on JAK1 it was below 100 nM. Also, at JAK1, the “Selectivity ratio over JAK2, JAK1” value is listed as “JAK1 = 150”.
For the compound `Cc1cnc(Nc2cnn(C)c2)nc1NC[C@@H]1C[C@H](F)CN1C(=O)CCC#N` [Example 104, 4-((2S,4S)-4-fluoro-2-(((5-methyl-2-((1-methyl-1H-pyrazol-4-yl)amino)pyrimidin-4-yl)amino)methyl)pyrrolidin-1-yl)-4-oxobutanenitrile], the IC50 is below 100 nM on TYK2, 1000 to 10000 nM at JAK2, 100 to 1000 nM at JAK3 and below 100 nM at JAK1. Also, the “Selectivity ratio over JAK2, JAK1” value at JAK1 is “JAK1 = 96”.
As to `Cc1cnc(Nc2cnn(C)c2)nc1NC[C@@H]1CCCN1CCS(C)(=O)=O` [Example 105, (S)-5-methyl-N^2-(1-methyl-1H-pyrazol-4-yl)-N^4-((1-(2-(methylsulfonyl)ethyl)pyrrolidin-2-yl)methyl)pyrimidine-2,4-diamine], the IC50 is below 100 nM at TYK2, 1000 to 10000 nM on JAK2, 100 to 1000 nM on JAK3 and below 100 nM on JAK1. The “Selectivity ratio over JAK2, JAK1” value on JAK1 is “JAK1 = 33”.
Turning to `Cc1cnc(Nc2cnn(C)c2)nc1NC[C@@H]1CCCN1CCC#N` [Example 106, (S)-3-(2-(((5-methyl-2-((1-methyl-1H-pyrazol-4-yl)amino)pyrimidin-4-yl)amino)methyl)pyrrolidin-1-yl)propanenitrile], the IC50 at TYK2 is below 100 nM; on JAK2, 1000 to 10000 nM; on JAK3, 100 to 1000 nM; at JAK1, below 100 nM. Also, the “Selectivity ratio over JAK2, Tyk2” value on TYK2 was “Tyk2 = 38”.
Regarding `Cc1cnc(Nc2cnn(C)c2)nc1NC[C@H]1CCCN1CCS(C)(=O)=O` [Example 107, (R)-5-methyl-N^2-(1-methyl-1H-pyrazol-4-yl)-N^4-((1-(2-(methylsulfonyl)ethyl)pyrrolidin-2-yl)methyl)pyrimidine-2,4-diamine], the IC50 on TYK2 is below 100 nM; on JAK2 it was 100 to 1000 nM; at JAK3, below 100 nM; at JAK1 it was below 100 nM. Besides, at TYK2, the “Selectivity ratio over JAK2, Tyk2” value is given as “Tyk2 = 67”.
Turning to `Cc1cnc(Nc2cnn(C)c2)nc1NC[C@H]1CCCN1CCC#N` [Example 108, (R)-3-(2-(((5-methyl-2-((1-methyl-1H-pyrazol-4-yl)amino)pyrimidin-4-yl)amino)methyl)pyrrolidin-1-yl)propanenitrile], the IC50 on TYK2 was below 100 nM; on JAK2 it was 1000 to 10000 nM; at JAK3, 100 to 1000 nM; on JAK1, 100 to 1000 nM. Besides, the “Selectivity ratio over JAK2, Tyk2” value on TYK2 is reported as “Tyk2 = 80”.
`Cc1cnc(Nc2cnn(C)c2)nc1NC[C@H]1CCCN1C(=O)CC#N` [Example 109, (R)-3-(2-(((5-methyl-2-((1-methyl-1H-pyrazol-4-yl)amino)pyrimidin-4-yl)amino)methyl)pyrrolidin-1-yl)-3-oxopropanenitrile]: the IC50 is below 100 nM on TYK2, 100 to 1000 nM on JAK2, 100 to 1000 nM at JAK3 and below 100 nM at JAK1. For the same compound, on TYK2, the “Selectivity ratio over JAK2, Tyk2” value is reported as “Tyk2 = 69”.
As for `Cn1cc(Nc2ncc(Cl)c(NC[C@@H]3C[C@H](F)CN3C(=O)CCC#N)n2)cn1` [Example 110, 4-((2S,4S)-2-(((5-chloro-2-((1-methyl-1H-pyrazol-4-yl)amino)pyrimidin-4-yl)amino)methyl)-4-fluoropyrrolidin-1-yl)-4-oxobutanenitrile], the IC50 at TYK2 is 100 to 1000 nM; on JAK2, 1000 to 10000 nM; at JAK3, below 100 nM; at JAK1, below 100 nM. Besides, the “Selectivity ratio over JAK2, JAK1” value at JAK1 was “JAK1 = 88”.
As for `Cc1cnc(Nc2cnn(C)c2)nc1NC[C@H]1CCN(C(=O)CCC#N)C1` [Example 111, (R)-4-(3-(((5-methyl-2-((1-methyl-1H-pyrazol-4-yl)amino)pyrimidin-4-yl)amino)methyl)pyrrolidin-1-yl)-4-oxobutanenitrile], the IC50 on TYK2 is below 100 nM; at JAK2, 1000 to 10000 nM; on JAK3, 1000 to 10000 nM; on JAK1, below 100 nM. In addition, the “Selectivity ratio over JAK2, JAK1” value on JAK1 is “JAK1 = 55”.
`Cn1cc(Nc2ncc(F)c(NC[C@H]3CCCN3CCC#N)n2)cn1` [Example 112, (R)-3-(2-(((5-fluoro-2-((1-methyl-1H-pyrazol-4-yl)amino)pyrimidin-4-yl)amino)methyl)pyrrolidin-1-yl)propanenitrile]: the IC50 is below 100 nM on TYK2, 1000 to 10000 nM on JAK2, 100 to 1000 nM at JAK3 and 100 to 1000 nM on JAK1. Moreover, the “Selectivity ratio over JAK2, Tyk2” value on TYK2 is on record as “Tyk2 = 53”.
Regarding `Cn1cc(Nc2ncc(F)c(NC[C@H]3CCCN3C(=O)CC#N)n2)cn1` [Example 113, (R)-3-(2-(((5-fluoro-2-((1-methyl-1H-pyrazol-4-yl)amino)pyrimidin-4-yl)amino)methyl)pyrrolidin-1-yl)-3-oxopropanenitrile], the IC50 at TYK2 is below 100 nM; at JAK2, 1000 to 10000 nM; at JAK3, 100 to 1000 nM; at JAK1 it was below 100 nM. For the same compound, the “Selectivity ratio over JAK2, Tyk2” value at TYK2 is “Tyk2 = 170”.
